The results in this text go back to ChEMBL document CHEMBL5678805, “Intermittent administration of MEK inhibitor GDC-0973 plus PI3K inhibitor GDC-0941 triggers robust apoptosis and tumor growth inhibition” (Cancer Res, 2012).

The source made the active and inactive calls. No cut-off for these calls is given here.

Test [1] has as its system A2058. Put plainly: Antitumor activity against human A2058 cells harboring BRAF V600E/PTEN deletion mutant xenografted in mouse assessed as decrease in tumor volume at 1.5 mg/kg, po administered once daily for 21 days in presence of GDC-0973 by digital calipers analysis. It counts as functional, organism-based. The following applies: time 21.0 day. For orientation: A xenograft is tissue or cells of one species grown in another, often human tumour cells in immunodeficient mice.

Test [2] concerns A2058. Put plainly: Antitumor activity against human A2058 cells harboring BRAF V600E/PTEN deletion mutant xenografted in mouse assessed as decrease in tumor volume at 10 mg/kg, po administered once weekly for 21 days in presence of GDC-0973 by digital calipers analysis. It is filed as functional, organism-based. The following applies: time 21.0 day.
The nature of test [3]: Antitumor activity against human A375.X1 cells xenografted in mouse assessed as tumor growth inhibition at 30 mg/kg, po administered once a day for 21 days. It is filed as functional. The following applies: A375.X1, 504 h, time 21 day, read-out: TGI.
Test [4] can be described thus: Antitumor activity against human A375.X1 cells xenografted in mouse assessed as tumor growth inhibition at 30 mg/kg, po administered once a day for 21 days in presence of (S)-(3,4-difluoro-2-((2-fluoro-4-iodophenyl)amino)phenyl)(3-hydroxy-3-(piperidin-2-yl)azetidin-1-yl)methanone. It is filed as functional. The following applies: A375.X1, 504 h, time 21 day, read-out: TGI.

The test system of test [5] is A2058. Description: Antitumor activity against human A2058 cells xenografted in mouse assessed as tumor growth inhibition at 30 mg/kg, po administered once a day for 21 days. It counts as functional. The following applies: A2058, 504 h, time 21 day, read-out: TGI.
Test [6] has as its system A2058. Description: Antitumor activity against human A2058 cells xenografted in mouse assessed as tumor growth inhibition at 30 mg/kg, po administered once a day for 21 days in presence of (S)-(3,4-difluoro-2-((2-fluoro-4-iodophenyl)amino)phenyl)(3-hydroxy-3-(piperidin-2-yl)azetidin-1-yl)methanone. It is filed as functional. Particulars: A2058, 504 h, time 21 day, read-out: TGI.

The test system of test [7] is DLD-1. Put plainly: Antitumor activity against human DLD-1 cells xenografted in mouse assessed as tumor growth inhibition at 30 mg/kg, po administered once a day for 21 days. It is filed as functional. Particulars: DLD-1, 504 h, time 21 day, read-out: TGI.
Test [8] has as its system DLD-1. Put plainly: Antitumor activity against human DLD-1 cells xenografted in mouse assessed as tumor growth inhibition at 30 mg/kg, po administered once a day for 21 days in presence of (S)-(3,4-difluoro-2-((2-fluoro-4-iodophenyl)amino)phenyl)(3-hydroxy-3-(piperidin-2-yl)azetidin-1-yl)methanone. It counts as functional. The following applies: DLD-1, 504 h, time 21 day, read-out: TGI.

Test [9] concerns NCI-H2122. Description: Antitumor activity against human NCI-H2122 cells xenografted in mouse assessed as tumor growth inhibition at 30 mg/kg, po administered once a day for 21 days. It is filed as functional. The following applies: NCI-H2122, 504 h, time 21 day, read-out: TGI.
Test [10] deals with NCI-H2122. Put plainly: Antitumor activity against human NCI-H2122 cells xenografted in mouse assessed as tumor growth inhibition at 30 mg/kg, po administered once a day for 21 days in presence of (S)-(3,4-difluoro-2-((2-fluoro-4-iodophenyl)amino)phenyl)(3-hydroxy-3-(piperidin-2-yl)azetidin-1-yl)methanone. Particulars: NCI-H2122, 504 h, time 21 day, read-out: TGI. It counts as functional.

Test [11] in a line: Antitumor activity against human A375.X1 cells xenografted in mouse assessed as tumor growth inhibition at 150 mg/kg, po administered every third day for 21 days. It counts as functional. Particulars: A375.X1, 504 h, time 21 day, read-out: TGI.
Test [12] is described as follows: Antitumor activity against human A375.X1 cells xenografted in mouse assessed as tumor growth inhibition at 150 mg/kg, po administered every third day for 21 days in presence of (S)-(3,4-difluoro-2-((2-fluoro-4-iodophenyl)amino)phenyl)(3-hydroxy-3-(piperidin-2-yl)azetidin-1-yl)methanone. It is filed as functional. The following applies: A375.X1, 504 h, time 21 day, read-out: TGI.

The test system of test [13] is A2058. Put plainly: Antitumor activity against human A2058 cells xenografted in mouse assessed as tumor growth inhibition at 150 mg/kg, po administered every third day for 21 days. It is filed as functional. Particulars: A2058, 504 h, time 21 day, read-out: TGI.
The test system of test [14] is DLD-1. Put plainly: Antitumor activity against human DLD-1 cells xenografted in mouse assessed as tumor growth inhibition at 50 mg/kg, po administered every third day for 21 days. It counts as functional. Particulars: DLD-1, 504 h, time 21 day, read-out: TGI.
Test [15] has as its system DLD-1. Put plainly: Antitumor activity against human DLD-1 cells xenografted in mouse assessed as tumor growth inhibition at 50 mg/kg, po administered every third day for 21 days in presence of (S)-(3,4-difluoro-2-((2-fluoro-4-iodophenyl)amino)phenyl)(3-hydroxy-3-(piperidin-2-yl)azetidin-1-yl)methanone. It counts as functional. The following applies: DLD-1, 504 h, time 21 day, read-out: TGI.

Test [16] concerns NCI-H2122. Description: Antitumor activity against human NCI-H2122 cells xenografted in mouse assessed as tumor growth inhibition at 150 mg/kg, po administered […] for 21 days. It counts as functional. Particulars: NCI-H2122, 504 h, time 21 day, read-out: TGI.
The subject of test [17] is NCI-H2122. Put plainly: Antitumor activity against human NCI-H2122 cells xenografted in mouse assessed as tumor growth inhibition at 150 mg/kg, po administered […] for 21 days in presence of (S)-(3,4-difluoro-2-((2-fluoro-4-iodophenyl)amino)phenyl)(3-hydroxy-3-(piperidin-2-yl)azetidin-1-yl)methanone. It is filed as functional. The following applies: NCI-H2122, 504 h, time 21 day, read-out: TGI.

Test [18] can be described thus: Antitumor activity against human A375.X1 cells xenografted in mouse assessed as tumor growth inhibition at 100 mg/kg, po administered once a day for 21 days. Particulars: A375.X1, 504 h, time 21 day, read-out: TGI. It is filed as functional.
Test [19] in a line: Antitumor activity against human A375.X1 cells xenografted in mouse assessed as tumor growth inhibition at 100 mg/kg, po administered once a day for 21 days in presence of (S)-(3,4-difluoro-2-((2-fluoro-4-iodophenyl)amino)phenyl)(3-hydroxy-3-(piperidin-2-yl)azetidin-1-yl)methanone. It counts as functional. The following applies: A375.X1, 504 h, time 21 day, read-out: TGI.
The test system of test [20] is A2058. Description: Antitumor activity against human A2058 cells xenografted in mouse assessed as tumor growth inhibition at 100 mg/kg, po administered once a day for 21 days. It counts as functional. The following applies: A2058, 504 h, time 21 day, read-out: TGI.
Test [21] relates to NCI-H2122. Put plainly: Antitumor activity against human NCI-H2122 cells xenografted in mouse assessed as tumor growth inhibition at 100 mg/kg, po administered once a day for 21 days. It counts as functional. The following applies: NCI-H2122, 504 h, time 21 day, read-out: TGI.
Test [22] has as its system NCI-H2122. Description: Antitumor activity against human NCI-H2122 cells xenografted in mouse assessed as tumor growth inhibition at 100 mg/kg, po administered once a day for 21 days in presence of (S)-(3,4-difluoro-2-((2-fluoro-4-iodophenyl)amino)phenyl)(3-hydroxy-3-(piperidin-2-yl)azetidin-1-yl)methanone. It counts as functional. The following applies: NCI-H2122, 504 h, time 21 day, read-out: TGI.

As to `Cc1c(CN2CCN(C(=O)[C@H](C)O)CC2)sc2c(N3CCOCC3)nc(-c3cnc(N)nc3)nc12`, the result in the test on A2058 [1] and in the test on A2058 [2] was Active.

As to `CS(=O)(=O)N1CCN(Cc2cc3nc(-c4cccc5[nH]ncc45)nc(N4CCOCC4)c3s2)CC1` [PICTILISIB], the inhibition in vivo at 30 mg/kg in [3] is 23%; in test [4] it was 69%; in the test on A2058 [5], 24%; in the test on A2058 [6] it was 73%; in the test on DLD-1 [7], 63%; in the test with DLD-1 [8] it was 88%. Also, the figures for the inhibition in vivo at 30 mg/kg with NCI-H2122 [9] and with NCI-H2122 [10] were 63% and 75%, respectively. Also, the inhibition in vivo at 150 mg/kg is 57% in test [11]; 118% in test [12]; 50% in the test with A2058 [13]; 43% in the test on NCI-H2122 [16]; 87% with NCI-H2122 [17]. The inhibition in vivo at 50 mg/kg with DLD-1 [14] was determined as 13%; in the test on DLD-1 [15], 72%. Also, the inhibition in vivo at 100 mg/kg in test [18] is -2%; in test [19], 122%; in the test on A2058 [20], 58%; in the test with NCI-H2122 [21], 91%; in the test on NCI-H2122 [22], 156%.
